# How the values were obtained:
# Assay in all cases: relative viability (nuclei count vs DMSO), 5 days (fraction); higher = more cells survive
# BEN = test system: BEN
# Outline: (§1)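 Five library-drug doses in √10 steps were combined with a fixed anchor-drug dose, or a single drug was given alone, by pin tool to lung cancer cell lines in 1536-well plates the day after seeding. Nuclei were stained and counted after 5 days. Relative viability is the nuclei count in treated wells over that in vehicle wells, taken as the median of duplicate plates.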
# CAL-12T = test system: CAL-12T
# Outline: as §1
# COR-L23 = test system: COR-L23
# Outline: as §1
# LU99A = test system: LU99A
# Outline: as §1
# LXF-289 = test system: LXF-289
# Outline: as §1
# NCI-H1355 = test system: NCI-H1355
# Outline: as §1
# NCI-H1437 = test system: NCI-H1437
# Outline: as §1
# NCI-H1563 = test system: NCI-H1563
# Outline: as §1
# NCI-H1650 = test system: NCI-H1650
# Outline: as §1
# NCI-H1651 = test system: NCI-H1651
# Outline: as §1
# NCI-H1666 = test system: NCI-H1666
# Outline: as §1
# NCI-H1755 = test system: NCI-H1755
# Outline: as §1
# NCI-H1993 = test system: NCI-H1993
# Outline: as §1
# NCI-H2085 = test system: NCI-H2085
# Outline: as §1
# NCI-H2087 = test system: NCI-H2087
# Outline: as §1
# NCI-H2170 = test system: NCI-H2170
# Outline: as §1
# NCI-H460 = test system: NCI-H460
# Outline: as §1
# NCI-H520 = test system: NCI-H520
# Outline: as §1
# PC-14 = test system: PC-14
# Outline: as §1
# SK-MES-1 = test system: SK-MES-1
# Outline: as §1
smiles,measurement,setting,value
Cc1cn(-c2cc(NC(=O)c3ccc(C)c(Nc4nccc(-c5cccnc5)n4)c3)cc(C(F)(F)F)c2)cn1 [Nilotinib] + COc1cc2c(Oc3ccc(NC(=O)C4(C(=O)Nc5ccc(F)cc5)CC4)cc3F)ccnc2cc1OCCCN1CCOCC1 [Foretinib] (partner 0.25 µM),relative viability,BEN; first compound 0.001 µM,0.829
same,relative viability,BEN; first compound 0.003162 µM,0.674
same,relative viability,BEN; first compound 0.01 µM,0.494
same,relative viability,BEN; first compound 0.03162 µM,0.647
same,relative viability,BEN; first compound 0.1 µM,0.285
same,relative viability,CAL-12T; first compound 0.001 µM,1.1
same,relative viability,CAL-12T; first compound 0.003162 µM,1.09
same,relative viability,CAL-12T; first compound 0.01 µM,1.17
same,relative viability,CAL-12T; first compound 0.1 µM,0.87
same,relative viability,COR-L23; first compound 0.001 µM,0.853
same,relative viability,COR-L23; first compound 0.003162 µM,1.28
same,relative viability,COR-L23; first compound 0.01 µM,1.13
same,relative viability,COR-L23; first compound 0.03162 µM,0.821
same,relative viability,COR-L23; first compound 0.1 µM,0.924
same,relative viability,LU99A; first compound 0.001 µM,0.784
same,relative viability,LU99A; first compound 0.003162 µM,0.848
same,relative viability,LU99A; first compound 0.01 µM,0.889
same,relative viability,LU99A; first compound 0.03162 µM,0.823
same,relative viability,LU99A; first compound 0.1 µM,0.509
same,relative viability,LXF-289; first compound 0.001 µM,0.968
same,relative viability,LXF-289; first compound 0.003162 µM,1.16
same,relative viability,LXF-289; first compound 0.03162 µM,0.893
same,relative viability,LXF-289; first compound 0.1 µM,0.761
same,relative viability,NCI-H1355; first compound 0.001 µM,0.907
same,relative viability,NCI-H1355; first compound 0.003162 µM,1.19
same,relative viability,NCI-H1355; first compound 0.01 µM,1.25
same,relative viability,NCI-H1355; first compound 0.03162 µM,0.893
same,relative viability,NCI-H1355; first compound 0.1 µM,0.992
same,relative viability,NCI-H1437; first compound 0.001 µM,1.2
same,relative viability,NCI-H1437; first compound 0.003162 µM,1.39
same,relative viability,NCI-H1437; first compound 0.01 µM,1.26
same,relative viability,NCI-H1437; first compound 0.03162 µM,1.03
same,relative viability,NCI-H1437; first compound 0.1 µM,1.27
same,relative viability,NCI-H1563; first compound 0.001 µM,0.933
same,relative viability,NCI-H1563; first compound 0.003162 µM,0.896
same,relative viability,NCI-H1563; first compound 0.01 µM,0.875
same,relative viability,NCI-H1563; first compound 0.03162 µM,0.852
same,relative viability,NCI-H1563; first compound 0.1 µM,0.891
same,relative viability,NCI-H1650; first compound 0.001 µM,1.09
same,relative viability,NCI-H1650; first compound 0.003162 µM,1.2
same,relative viability,NCI-H1650; first compound 0.01 µM,1.3
same,relative viability,NCI-H1650; first compound 0.03162 µM,1.09
same,relative viability,NCI-H1650; first compound 0.1 µM,1.3
same,relative viability,NCI-H1651; first compound 0.001 µM,0.82
same,relative viability,NCI-H1651; first compound 0.003162 µM,0.922
same,relative viability,NCI-H1651; first compound 0.01 µM,1.19
same,relative viability,NCI-H1651; first compound 0.03162 µM,0.761
same,relative viability,NCI-H1651; first compound 0.1 µM,0.79
same,relative viability,NCI-H1666; first compound 0.001 µM,0.929
same,relative viability,NCI-H1666; first compound 0.003162 µM,0.996
same,relative viability,NCI-H1666; first compound 0.03162 µM,0.911
same,relative viability,NCI-H1666; first compound 0.1 µM,1.07
same,relative viability,NCI-H1755; first compound 0.001 µM,0.892
same,relative viability,NCI-H1755; first compound 0.003162 µM,0.968
same,relative viability,NCI-H1755; first compound 0.01 µM,0.974
same,relative viability,NCI-H1755; first compound 0.03162 µM,0.983
same,relative viability,NCI-H1755; first compound 0.1 µM,0.843
same,relative viability,NCI-H1993; first compound 0.001 µM,0.823
same,relative viability,NCI-H1993; first compound 0.003162 µM,0.871
same,relative viability,NCI-H1993; first compound 0.01 µM,0.989
same,relative viability,NCI-H1993; first compound 0.03162 µM,0.742
same,relative viability,NCI-H1993; first compound 0.1 µM,0.839
same,relative viability,NCI-H2085; first compound 0.001 µM,0.919
same,relative viability,NCI-H2085; first compound 0.003162 µM,1.09
same,relative viability,NCI-H2085; first compound 0.01 µM,1.17
same,relative viability,NCI-H2085; first compound 0.03162 µM,0.84
same,relative viability,NCI-H2085; first compound 0.1 µM,0.801
same,relative viability,NCI-H2087; first compound 0.001 µM,1.03
same,relative viability,NCI-H2087; first compound 0.003162 µM,1.16
same,relative viability,NCI-H2087; first compound 0.01 µM,1.27
same,relative viability,NCI-H2087; first compound 0.03162 µM,0.83
same,relative viability,NCI-H2087; first compound 0.1 µM,0.761
same,relative viability,NCI-H2170; first compound 0.001 µM,1.03
same,relative viability,NCI-H2170; first compound 0.003162 µM,1.14
same,relative viability,NCI-H2170; first compound 0.01 µM,1.24
same,relative viability,NCI-H2170; first compound 0.03162 µM,0.995
same,relative viability,NCI-H2170; first compound 0.1 µM,1.01
same,relative viability,NCI-H460; first compound 0.001 µM,0.903
same,relative viability,NCI-H460; first compound 0.003162 µM,1.31
same,relative viability,NCI-H460; first compound 0.01 µM,1.17
same,relative viability,NCI-H460; first compound 0.03162 µM,0.66
same,relative viability,NCI-H460; first compound 0.1 µM,0.941
same,relative viability,NCI-H520; first compound 0.001 µM,0.757
same,relative viability,NCI-H520; first compound 0.003162 µM,1.03
same,relative viability,NCI-H520; first compound 0.01 µM,0.91
same,relative viability,NCI-H520; first compound 0.03162 µM,0.684
same,relative viability,NCI-H520; first compound 0.1 µM,0.688
same,relative viability,PC-14; first compound 0.001 µM,0.974
same,relative viability,PC-14; first compound 0.003162 µM,1.11
same,relative viability,PC-14; first compound 0.01 µM,1.07
same,relative viability,PC-14; first compound 0.03162 µM,0.845
same,relative viability,PC-14; first compound 0.1 µM,0.928
same,relative viability,SK-MES-1; first compound 0.003162 µM,1.13
same,relative viability,SK-MES-1; first compound 0.01 µM,1.23
same,relative viability,SK-MES-1; first compound 0.03162 µM,0.904
same,relative viability,SK-MES-1; first compound 0.1 µM,0.963

# Source: the supplement of paper PMC10307832
